From US7344710B2 (priority 2001, dated 2008) come the findings set out here.

For one series, the system named is HCT116 tumor xenograft. On the set-up: species or system mice. The note with it: mouse, in vivo.
The subject of another series is B16 tumors. Set-up: species or system mice. The note with it: mouse, in vivo.
For series [1] the following is noted: mouse, in vivo.

As to COBALT, in the series on HCT116 tumor xenograft, the “Effect on tumor growth (FIG. 6A, 6B)” value was “tumors actually shrinking rather than simply slowing”; the “Mice cured / complete tumor regression / long-term tumor-free survival” value was “four were apparently cured of their tumor and Four of these seven mice were cured and four of eight and half”; the “Mice developing striking hemorrhagic necrosis of their tumors” value is “seven of eight”; the “Time at which a black spot of hemorrhagic necrosis is evident” value is 0.3 days. Besides, the “Visible hemorrhagic necrosis and disappearance of tumors (FIG. 5)” value in the series with HCT116 tumor xenograft was “dramatic effects on large subcutaneous tumors”. Also, the “Effect on tumor growth (FIG. 6C)” value with B16 tumors was “tumors remained small over the four week course of this experiment”. Further, in series [1], the “Deaths after a single dose of COBALT” value was “three of the mice died” and the “Deaths after the first dose of COBALT” value is “Four mice died”.
